Data: the supplement of paper PMC10307832

Tests used:
Assay in all cases: relative viability (nuclei count vs DMSO), 5 days (fraction); higher = more cells survive
Kobe2602 + Trametinib = compound: C1=CC(=CC=C1NC(=S)NNC2=C(C=C(C=C2[N+](=O)[O-])C(F)(F)F)[N+](=O)[O-])F [Kobe2602] + CC(=O)Nc1cccc(-n2c(=O)n(C3CC3)c(=O)c3c(Nc4ccc(I)cc4F)n(C)c(=O)c(C)c32)c1 [Trametinib] (partner 0.02 µM)
Outline: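 Relative viability was taken as the ratio of nuclei in treated wells to nuclei in vehicle wells. Lung cancer cell lines in 1536-well plates received compounds by pin tool one day after seeding, either one drug alone or a fixed anchor-drug dose plus five library-drug doses (not always all listed) in √10 steps. Nuclei were counted on 4× images after 5 days of treatment, and values are medians of duplicate plates.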

Kobe2602 = compound: C1=CC(=CC=C1NC(=S)NNC2=C(C=C(C=C2[N+](=O)[O-])C(F)(F)F)[N+](=O)[O-])F [Kobe2602]
Outline: (§1)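 A plate was accepted only when its control CV was below 25% and the cells had doubled at least once. Viability is defined from nuclear counts as treated wells divided by vehicle wells, with the median taken across plates. That median covers lung cancer cell lines grown in 1536-well plates, dosed by pinning at five √10-spaced library-drug concentrations, and counted in MetaXpress from 4× Hoechst images after 5 days.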

Cabozantinib = compound: COc1cc2nccc(Oc3ccc(NC(=O)C4(C(=O)Nc5ccc(F)cc5)CC4)cc3)c2cc1OC [Cabozantinib]
Outline: as §1

Zosuquidar = compound: O[C@@H](COc1cccc2ncccc12)CN1CCN([C@@H]2c3ccccc3[C@@H]3[C@H](c4ccccc42)C3(F)F)CC1 [Zosuquidar]
Outline: as §1

Cell Line	relative viability (Kobe2602 + Trametinib; first compound 0.2 µM)	relative viability (Kobe2602 + Trametinib; first compound 0.6325 µM)	relative viability (Kobe2602 + Trametinib; first compound 2 µM)	relative viability (Kobe2602 + Trametinib; first compound 6.325 µM)	relative viability (Kobe2602 + Trametinib; first compound 20 µM)	relative viability (Kobe2602; 0.2 µM)	relative viability (Kobe2602; 0.6325 µM)	relative viability (Kobe2602; 2 µM)	relative viability (Kobe2602; 6.325 µM)	relative viability (Kobe2602; 20 µM)	relative viability (Cabozantinib; 0.02 µM)	relative viability (Cabozantinib; 0.06325 µM)	relative viability (Cabozantinib; 0.6325 µM)	relative viability (Cabozantinib; 2 µM)	relative viability (Zosuquidar; 0.01 µM)	relative viability (Zosuquidar; 0.03162 µM)	relative viability (Zosuquidar; 0.1 µM)	relative viability (Zosuquidar; 0.3162 µM)	relative viability (Zosuquidar; 1 µM)	relative viability (Cabozantinib; 0.2 µM)
PC-3 [JPC-3]	0.69	0.699	0.7	0.683	0.668	1.07	1.09	1.01	1.01	0.954	1.03	1.21	1.03	1.09	1.06	0.992	0.883	0.972	1.01	
HARA	0.846	0.636	0.627	0.771	0.752	0.978	1.13	0.944	1.01	1.03	0.916	1.16	1.04	1.05	0.98	0.852	0.944	1.01	0.941	0.714
NCI-H2347	0.291	0.251	0.336	0.304	0.326	1.04	1.02	1.01	1.06	1.07	1.15	1.14	0.886	0.961	1	1.05	0.854	1.11	0.991	1.06
LOU-NH91	0.763	0.793	0.739	0.793	0.821	0.993	1.05	0.912	0.999	1.04	0.919	1.13	0.926	0.975	0.888	0.953	0.775	1.01	0.922	0.885
LC-2-ad	0.931	0.895	0.849	0.936	0.89	0.999	1.02	0.954	0.951	1.08	0.838	1.13	0.878	0.704	0.919	1.07	0.923	1.13	0.995	0.946
LCLC-97TM1	0.184	0.186		0.207	0.257	1.07	1.07	0.928	0.798	1		1.02	0.999	1.02	0.9	1.12		1.02	0.939	1.06
EKVX	0.38	0.366	0.288	0.298	0.319	0.968	1.02	0.922	0.976	1.09	0.919	1.12	1.01	1.1	0.952	0.961	0.737	1.02	0.97	0.915
NCI-H441	0.509	0.496	0.472	0.433	0.54	0.973	1.2	0.917	1.04	1.16	0.738	1.23	0.793	0.879	1.14	0.881	0.829	1.06	1.17	0.96
HCC-827	0.546	0.546	0.571	0.537	0.558	1.07	1.13	1.06	1	1.02	1.07	1.01	1.12	1.06	0.973	0.977	0.981	1.06	0.976	
NCI-H838	0.516	0.566	0.49	0.536	0.466	0.932	1.03	0.937	0.955	0.96	0.93	1	0.891	0.854	0.972	0.836	0.9	1.04	1.01	0.966
CAL-12T	0.331	0.337	0.37	0.412	0.318	0.965	1.06	0.896	0.997	0.957	1.04	1.14	0.982	1.01	1.07	1.16	0.923	1.2	0.932	1.01
NCI-H2342	0.741	0.84	0.794	0.68	0.84	1.03	1.06	0.92	0.946	1.12	0.909	1.02	0.952	0.888	0.876	0.964	0.758	1.11	1	0.866
SW 900	0.959	0.745	0.807	0.677	0.548	0.987	0.861	0.83	0.906	0.975	0.807	1.14	0.959	0.903	0.904	0.889	0.705	1.22	0.759	0.815
IA-LM						0.932	1.08	0.923	0.895	0.929	1.21	1.09	1.04	1.27	0.939	1.01	0.838	0.945	0.865	0.9
EPLC-272H	0.263	0.288	0.304	0.278	0.299	0.98	1.16	0.952	1.02	1.04	0.921	1.17	0.872	0.856	0.963	0.995	0.781	1.06	0.892	0.821
A-427	0.804	0.745	0.793	0.739	0.742	1.03	1.12	0.962	1.04	1.06	0.996	1.01	0.972	0.98	1.02	1.01	0.801	1.14	0.96	1.02
